In patent US20240425518A1, “N-MACROCYCLIC AMIDE COMPOUNDS, PREPARATION METHODS THEREOF AND APPLICATIONS THEREOF AS MEDICAMENTS” (Chengdu FANXI Biopharma Co., Ltd., priority 2023, published 2024):
Substitutions are numbered along the chain they refer to.

Assays:
Assay type in all cases: biochemical
[1] = molecular target: T1, Flt3 (D835Y) (h) (Homo sapiens, UniProt P36888, D835Y); assay: Radioisotope labeling kinase assay (Eurofins), Flt3 (D835Y); conditions: 1 μM compound; read-out: Inhibitory activity per unit concentration/Activity % Flt3 (D835Y) (h)
T1 construct: purchased Eurofins
T1 sequence (P36888 27-993 D835Y): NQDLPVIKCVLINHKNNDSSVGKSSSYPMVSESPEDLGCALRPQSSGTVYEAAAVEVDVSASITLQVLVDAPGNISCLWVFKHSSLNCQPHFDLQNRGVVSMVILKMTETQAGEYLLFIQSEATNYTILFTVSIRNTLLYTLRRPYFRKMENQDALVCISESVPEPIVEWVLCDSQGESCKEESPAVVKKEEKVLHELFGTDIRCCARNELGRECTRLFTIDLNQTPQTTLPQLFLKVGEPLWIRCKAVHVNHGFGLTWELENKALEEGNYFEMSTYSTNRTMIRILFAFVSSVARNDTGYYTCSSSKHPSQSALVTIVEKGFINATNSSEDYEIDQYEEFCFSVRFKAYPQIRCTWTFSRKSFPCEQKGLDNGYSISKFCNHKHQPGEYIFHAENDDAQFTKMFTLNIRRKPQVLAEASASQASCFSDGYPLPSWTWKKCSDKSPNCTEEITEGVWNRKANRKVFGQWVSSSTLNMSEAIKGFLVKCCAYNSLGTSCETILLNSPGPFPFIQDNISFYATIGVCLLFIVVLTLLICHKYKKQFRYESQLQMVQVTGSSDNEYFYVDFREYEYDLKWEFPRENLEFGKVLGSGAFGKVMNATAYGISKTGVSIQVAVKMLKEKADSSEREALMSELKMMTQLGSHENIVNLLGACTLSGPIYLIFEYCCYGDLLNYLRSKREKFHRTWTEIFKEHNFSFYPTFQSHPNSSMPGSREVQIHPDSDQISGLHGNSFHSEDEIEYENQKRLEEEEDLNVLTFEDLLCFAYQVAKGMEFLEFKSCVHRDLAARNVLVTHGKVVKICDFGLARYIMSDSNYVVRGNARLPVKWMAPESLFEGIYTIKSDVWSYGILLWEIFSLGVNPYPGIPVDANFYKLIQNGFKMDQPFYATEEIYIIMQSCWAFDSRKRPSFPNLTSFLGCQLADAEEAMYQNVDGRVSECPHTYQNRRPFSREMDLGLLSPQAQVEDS
Protocol: (§1) An activity to a human recombinant protein kinase of a series of compounds was determined by a radioisotope labeling method, which was provided by Eurofins Company. A compound to be detected was mixed with a corresponding protein kinase buffer (20 mM propyl sulfonate (MOPS, […].), 1 mM EDTA, 0.10 β-mercaptoethanol, 0.010 Brij-35, […], and 1 mg/mL BSA), the mixture was added into a reaction system (100 μM reaction substrate […], 8 mM MOPS with a pH value of 7.0, 10 mM MgAcetate, 0.2 mM EDTA, and a certain concentration of γ-^33P-ATP). After adding an MgATP composite solution, the reaction was started at room temperature for 40 minutes, and the reaction was terminated by adding 5 μl of […] solution. Then, 10 μl of reaction solution was dropwise added onto a filter and washed with 75 mM phosphoric acid solution for three times, 5 minutes each time, then washed with methanol once again, and dried and subjected to scintillation counting.

[2] = molecular target: T2, Ab1 (h) (Homo sapiens, UniProt P00519); assay: Radioisotope labeling kinase assay (Eurofins), Ab1; conditions: 1 μM compound; read-out: Inhibitory activity per unit concentration/Activity % Ab1 (h)
T2 construct: purchased Eurofins
Protocol: as §1

[3] = molecular target: T3, JAK3 (h) (Homo sapiens, UniProt P52333); assay: Radioisotope labeling kinase assay (Eurofins), JAK3; conditions: 1 μM compound; read-out: Inhibitory activity per unit concentration/Activity % JAK3 (h)
T3 construct: purchased Eurofins
T3 sequence (P52333 1-1124): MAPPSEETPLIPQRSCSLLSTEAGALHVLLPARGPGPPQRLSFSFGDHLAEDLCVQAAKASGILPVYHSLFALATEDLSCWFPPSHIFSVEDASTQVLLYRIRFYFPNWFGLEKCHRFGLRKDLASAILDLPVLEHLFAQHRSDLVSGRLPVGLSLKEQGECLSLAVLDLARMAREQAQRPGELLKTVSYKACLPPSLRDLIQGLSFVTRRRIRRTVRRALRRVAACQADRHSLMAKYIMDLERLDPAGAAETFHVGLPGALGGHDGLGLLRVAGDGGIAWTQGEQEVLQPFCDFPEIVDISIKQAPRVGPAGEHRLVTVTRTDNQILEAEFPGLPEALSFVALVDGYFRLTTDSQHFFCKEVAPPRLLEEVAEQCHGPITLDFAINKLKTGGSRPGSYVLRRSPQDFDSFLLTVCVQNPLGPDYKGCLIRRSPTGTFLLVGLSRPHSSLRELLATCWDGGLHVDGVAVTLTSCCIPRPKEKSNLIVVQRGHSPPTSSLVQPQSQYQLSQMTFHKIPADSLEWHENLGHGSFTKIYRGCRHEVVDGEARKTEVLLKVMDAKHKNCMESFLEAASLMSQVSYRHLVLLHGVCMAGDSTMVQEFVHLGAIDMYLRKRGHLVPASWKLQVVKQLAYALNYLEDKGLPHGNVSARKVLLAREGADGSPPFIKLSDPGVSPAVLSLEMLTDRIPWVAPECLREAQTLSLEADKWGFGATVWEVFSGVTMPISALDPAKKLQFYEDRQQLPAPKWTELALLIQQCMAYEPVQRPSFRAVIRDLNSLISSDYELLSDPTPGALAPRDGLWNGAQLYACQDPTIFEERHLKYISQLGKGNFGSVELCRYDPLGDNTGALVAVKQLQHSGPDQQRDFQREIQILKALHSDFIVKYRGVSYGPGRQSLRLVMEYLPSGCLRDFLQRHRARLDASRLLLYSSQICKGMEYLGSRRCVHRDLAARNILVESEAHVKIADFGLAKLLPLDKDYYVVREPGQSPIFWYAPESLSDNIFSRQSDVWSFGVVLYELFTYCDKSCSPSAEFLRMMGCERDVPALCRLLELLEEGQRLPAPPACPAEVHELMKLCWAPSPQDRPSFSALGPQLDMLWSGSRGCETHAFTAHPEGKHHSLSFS
Protocol: as §1

[4] = molecular target: T4, Flt3 (h) (Homo sapiens, UniProt P36888); assay: Radioisotope labeling kinase assay (Eurofins), Flt3; conditions: 1 μM compound; read-out: Inhibitory activity per unit concentration/Activity % Flt3 (h)
T4 construct: purchased Eurofins
T4 sequence (P36888 27-993): T1 sequence (P36888 27-993 D835Y) with Y809D
Protocol: as §1

[5] = molecular target: T5, BTK (h) (Homo sapiens, UniProt Q06187); assay: Radioisotope labeling kinase assay (Eurofins), BTK; conditions: 1 μM compound; read-out: Inhibitory activity per unit concentration/Activity % BTK (h)
T5 construct: purchased Eurofins
Protocol: as §1

T2 sequence (P00519 whole entry): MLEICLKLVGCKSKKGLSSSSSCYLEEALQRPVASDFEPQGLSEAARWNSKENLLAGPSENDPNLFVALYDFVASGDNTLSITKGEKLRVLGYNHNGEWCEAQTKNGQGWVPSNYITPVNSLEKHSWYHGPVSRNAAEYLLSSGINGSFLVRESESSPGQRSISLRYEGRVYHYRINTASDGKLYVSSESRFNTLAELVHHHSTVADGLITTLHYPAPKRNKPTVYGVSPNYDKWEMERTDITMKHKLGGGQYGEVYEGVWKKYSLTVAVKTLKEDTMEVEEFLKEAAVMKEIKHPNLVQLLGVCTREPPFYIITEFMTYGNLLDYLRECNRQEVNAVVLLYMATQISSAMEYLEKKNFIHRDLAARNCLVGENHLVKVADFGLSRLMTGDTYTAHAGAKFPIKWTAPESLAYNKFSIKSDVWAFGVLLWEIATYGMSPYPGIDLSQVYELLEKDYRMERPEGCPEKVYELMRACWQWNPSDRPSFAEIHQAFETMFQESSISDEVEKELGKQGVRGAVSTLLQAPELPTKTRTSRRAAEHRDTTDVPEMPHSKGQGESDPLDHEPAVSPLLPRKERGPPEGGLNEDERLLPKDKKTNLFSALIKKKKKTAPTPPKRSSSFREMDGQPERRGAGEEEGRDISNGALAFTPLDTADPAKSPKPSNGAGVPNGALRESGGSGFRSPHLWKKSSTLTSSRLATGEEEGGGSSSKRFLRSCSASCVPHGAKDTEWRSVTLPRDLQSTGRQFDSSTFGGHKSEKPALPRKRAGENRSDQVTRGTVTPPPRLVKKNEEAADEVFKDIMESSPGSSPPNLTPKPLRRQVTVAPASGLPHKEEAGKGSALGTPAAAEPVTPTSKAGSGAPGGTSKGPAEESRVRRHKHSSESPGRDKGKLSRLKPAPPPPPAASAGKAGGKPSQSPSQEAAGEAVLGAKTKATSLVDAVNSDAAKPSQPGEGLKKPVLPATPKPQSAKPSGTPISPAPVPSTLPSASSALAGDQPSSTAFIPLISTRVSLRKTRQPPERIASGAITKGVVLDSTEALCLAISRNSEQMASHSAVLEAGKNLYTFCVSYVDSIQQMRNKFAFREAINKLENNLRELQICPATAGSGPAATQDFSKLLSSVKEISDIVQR
T5 sequence (Q06187 whole entry): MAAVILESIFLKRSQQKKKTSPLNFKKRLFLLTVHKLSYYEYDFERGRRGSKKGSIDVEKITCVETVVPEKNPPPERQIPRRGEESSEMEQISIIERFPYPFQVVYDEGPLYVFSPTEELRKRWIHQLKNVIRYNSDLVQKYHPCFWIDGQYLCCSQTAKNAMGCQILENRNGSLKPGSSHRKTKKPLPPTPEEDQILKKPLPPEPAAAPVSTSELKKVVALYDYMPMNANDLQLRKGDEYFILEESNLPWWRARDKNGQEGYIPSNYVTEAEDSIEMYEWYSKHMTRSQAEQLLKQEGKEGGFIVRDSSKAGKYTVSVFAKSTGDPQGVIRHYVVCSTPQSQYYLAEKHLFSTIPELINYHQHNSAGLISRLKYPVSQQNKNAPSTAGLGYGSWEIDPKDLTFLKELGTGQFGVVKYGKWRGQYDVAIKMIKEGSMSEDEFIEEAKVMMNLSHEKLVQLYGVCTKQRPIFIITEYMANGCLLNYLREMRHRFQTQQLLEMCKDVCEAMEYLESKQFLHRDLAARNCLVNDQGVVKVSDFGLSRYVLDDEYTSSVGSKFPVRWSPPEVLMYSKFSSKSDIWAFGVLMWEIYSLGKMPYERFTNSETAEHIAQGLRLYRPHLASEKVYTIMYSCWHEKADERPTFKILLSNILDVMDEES

SMILES | activity at 1 µM [1] [%] | activity at 1 µM [2] [%] | activity at 1 µM [3] [%] | activity at 1 µM [4] [%] | activity at 1 µM [5] [%]
CN1C/C=C/COCc2cccc(c2)-c2ccnc(n2)Nc2cc(N)cc(c2)C1 [XIII-2] | 1 | 57 | 77 | 7 | 71
N#Cc1ccc(/C=C/C(=O)Nc2cc3cc(c2)Nc2nccc(n2)-c2cccc(c2)COC/C=C/COC3)cc1 [XVI-2] | 3 | 42 | 56 | 12 | 61
O=C(/C=C/C(F)(F)F)Nc1cc2cc(c1)Nc1nccc(n1)-c1cccc(c1)COC/C=C/COC2 [XVI-5] | 7 | 57 | 75 | 17 | 88
O=C(/C=C/c1cnc[nH]1)Nc1cc2cc(c1)Nc1nccc(n1)-c1cccc(c1)COC/C=C/COC2 [XVI-7] | -1 | 17 | 21 | 7 | 45
O=C(/C=C/COc1cc2cc(c1)Nc1nccc(n1)-c1cccc(c1)COC/C=C/COC2)N1CCCC1 [XVI-13] | -2 | 39 | 34 | 24 | 49
O=C(/C=C/COc1cc2cc(c1)Nc1nccc(n1)-c1cccc(c1)COC/C=C/COC2)N1CCOCC1 [XVI-14] | 3 | 46 | 21 | 8 | 47
O=C(/C=C/CNC1CCOC1)Nc1cc2cc(c1)Nc1nccc(n1)-c1cccc(c1)COC/C=C/COC2 (centres unmarked) [XVI-15] | 6 | 7 | 6 | 20 | 12
C1=C/COCc2cccc(c2)-c2ccnc(n2)Nc2cc(cc(OC/C=C/CN3CCOCC3)c2)COC/1 [XVI-16] | -1 | 19 | 32 | 20 | 48
NC1CCN(C/C=C/C(=O)Nc2cc3cc(c2)Nc2nccc(n2)-c2cccc(c2)COC/C=C/COC3)C1 (centres unmarked) [XVI-17] | 8 | -4 | 4 | 16 | 17
O=C(/C=C/CN1CCC(O)C1)Nc1cc2cc(c1)Nc1nccc(n1)-c1cccc(c1)COC/C=C/COC2 (centres unmarked) [XVI-18] | 4 | 2 | 8 | 19 | 17
O=C(/C=C/CNC1CCOC1)Nc1cc2cc(c1)Nc1nccc(n1)-c1cccc(c1)CCC/C=C/COC2 (centres unmarked) [XVI-19] | -3 | 2 | 6 | 23 | 17
C1=C/COCc2ccc(OC/C=C/CN3CCCC3)c(c2)Nc2nccc(n2)-c2cccc(c2)COC/1 [XVI-20] | 33 | 85 | 97 | 91 | 90
O=C(/C=C/COc1ccc2cc1Nc1nccc(n1)-c1cccc(c1)COC/C=C/COC2)N1CCCC1 [XVI-21] | 44 | 92 | 95 | 82 | 78
O=C(/C=C/COc1ccc2cc1Nc1nccc(n1)-c1cccc(c1)COC/C=C/COC2)N1CCOCC1 [XVI-22] | 41 | 81 | 100 | 96 | 82
C1=C/COCc2ccc(OC/C=C/CN3CCOCC3)c(c2)Nc2nccc(n2)-c2cccc(c2)COC/1 [XVI-23] | 27 | 85 | 10 | 78 | 90
CN1CCC(NC(=O)/C=C/COc2ccc3cc2Nc2nccc(n2)-c2cccc(c2)COC/C=C/COC3)C1 (centres unmarked) [XVI-24] | 50 | 81 | 88 | 82 | 86
